Data from US20250120967A1, “TYROSINE KINASES INHIBITORS AND USES THEREOF” (GREAT NOVEL THERAPEUTICS BIOTECH & MEDICALS CORPORATION, priority 2023, published 2025).
Values joined by “and” are separate entries in the source; they are usually repeats but may differ in a detail not shown here. Equal values may be shown once.

How the values were obtained:
SNB-75 = assay: NCI-60 screen (SRB); assay type: cell-based; settings: Homo sapiens; SNB-75, CNS Cancer
Description: (§1) The human tumor cell lines of the cancer screening panel are grown in RPMI 1640 medium containing 5% fetal bovine serum and 2 mM L-glutamine. For a typical screening experiment, cells are inoculated into 96 well microtiter plates in 100 μL at plating densities ranging from 5,000 to 40,000 cells/well depending on the doubling time of individual cell lines. After cell inoculation, the microtiter plates are incubated at 37° C., 5% CO2, 95% air and 100% relative humidity for 24 h prior to addition of experimental drugs. After 24 h, two plates of each cell line are fixed in situ with TCA, to represent a measurement of the cell population for each cell line at the time of drug addition (Tz). Experimental drugs are solubilized in dimethyl sulfoxide at 400-fold the desired final maximum test concentration and stored frozen prior to use. At the time of drug addition, an aliquot of frozen concentrate is thawed and diluted to twice the desired final maximum test concentration with complete medium containing 50 µg/ml gentamicin. An additional four, 10-fold or M log serial dilutions are made to provide a total of five drug concentrations plus control. Aliquots of 100 μl of these different drug dilutions are added to the appropriate microtiter wells already containing 100 μl of medium, resulting in the required final drug concentrations. Following drug addition, the plates are incubated for an additional 48 h at 37° C., 5% CO2, 95% air, and 100% relative humidity. For adherent cells, the assay is terminated by the addition of cold TCA. Cells are fixed in situ by the gentle addition of 50 μl of cold 50% (w/v) TCA (final concentration, 10% TCA) and incubated for 60 minutes at 4° C. The supernatant is discarded, and the plates are washed five times with tap water and air dried. Sulforhodamine B (SRB) solution (100 l) at 0.4% (w/v) in 1% acetic acid is added to each well, and plates are incubated for 10 minutes at room temperature. After staining, unbound dye is removed by washing five times with 1% acetic acid and the plates are air dried. Bound stain is subsequently solubilized with 10 mM trizma base, and the absorbance is read on an automated plate reader at a wavelength of 515 nm. For suspension cells, the methodology is the same except that the assay is terminated by fixing settled cells at the bottom of the wells by gently adding 50 μl of 80% TCA (final concentration, 16% TCA).

CT26 cells = assay: Tumor rechallenge test, CT26 rechallenge; assay type: in vivo, Balb/c mice; settings: Table 9, CT26 rechallenge, GNTbm-38-K30 20 mg/kg, Regorafenib 30 mg/kg, Cbo-23 30 mg/kg
Description: (§2) Mice evaluated as CR/PR can enter the rechallenge study. All mice with PR/CR response went through rechallenges with CT26 cells on the contralateral side. The first rechallenge was performed after second assessment with a tumor dose of 1×10^6 cells per mouse. After 7 days of growth, CT26 and LLC1 tumor sizes were used as the baseline. Tumor growth was monitored for a duration of 11 days, and on the 11th day, a tumor size assessment was conducted relative to the baseline. If both of the following criteria are met, the response will be considered as relapse: first, the tumor size was over 1.5 folds when compared to that of baseline; second, the tumor volume was over 150 mm^3.
(§3) If both of the following criteria are met, the response will be considered as relapse: first, the tumor size over 1.5 folds when compared to that of baseline; second, the tumor volume at day 67 was over 150 mm^3.
(§4) If both of the following criteria are met, the response will be considered as relapse: first, the tumor size was over 1.5 folds when compared to that of baseline; second, the tumor volume at day 56 was over 150 mm^3.

LLC1 = assay: Tumor rechallenge test, LLC1 rechallenge; assay type: in vivo; settings: Table 9, LLC1 rechallenge, GNTbm-38-K30 20 mg/kg, Regorafenib 30 mg/kg, Cbo-23 30 mg/kg
Description: as §2, §3, §4

RPMI-8226 = assay: NCI-60 screen (SRB); assay type: cell-based; settings: Homo sapiens; RPMI-8226, Leukemia
Description: as §1

Which results are given for `COc1cc2nccc(Oc3ccc(NC(=O)C4(C(=O)Nc5ccc(F)cc5)CC4)cc3F)c2cc1Oc1ccc(N)cc1F` [Cbo-23]?
GI50 (SNB-75): 178 nM; Day 56 Fold change (CT26 cells; individual mice, vs Day 45): 2.6 and 0; Day 45 mm^3 (baseline tumor size) (CT26 cells; individual mice): 119.17 mm^3 and 60.82 mm^3; Day 56 mm^3 (CT26 cells; individual mice): 309.20 mm^3 and 0 mm^3; Score (CT26 cells; individual mice): + (If both of the following criteria are met, the response will be considered as relapse: first, the tumor size was over 1.5 folds when compared to that of baseline; second, the tumor volume at day 56 was over 150 mm^3.); Immunity Percentage (CT26 cells): 50% (1/2); Day 56 Fold change (LLC1; individual mice, vs Day 45): 2.5 and 1.0; Day 45 mm^3 (baseline tumor size) (LLC1; individual mice): 163.76 mm^3 and 173.53 mm^3; Day 56 mm^3 (LLC1; individual mice): 403.54 mm^3 and 169.80 mm^3; Score (LLC1; individual mice): + (If both of the following criteria are met, the response will be considered as relapse: first, the tumor size was over 1.5 folds when compared to that of baseline; second, the tumor volume at day 56 was over 150 mm^3.); Immunity Percentage (LLC1): 50% (1/2)

Which results are given for `COc1cc2nccc(Oc3ccc(NC(=O)C4(NC(=O)c5ccc(F)cc5)CC4)cc3F)c2cc1Oc1ccc(N)cc1F` [Cbo-10]?
GI50 (RPMI-8226): 2.99 µM; GI50 (SNB-75): > 100000 nM

Which GI50 (RPMI-8226) does the source give for `COc1cc2nccc(Oc3ccc(NC(=O)C4(NC(=O)c5ccc(F)cc5)CC4)cc3F)c2cc1OC` [Cbo-02, N-(1-((4-((6,7-diMethoxyquinolin-4-yl)oxy)-3-fluorophenyl)carbamoyl)cyclopropyl)-4-fluorobenzamide] here?
The GI50 was 4.57 µM.
